pIC50: −log10 of the molar value.
Test system: NCI-H1876 complex spheroid viability
Experiment: Anticancer human tumor NCI-H1876 cell line growth inhibition [LSD1];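 note: spheroids exposed to compounds for one week before readout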;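 for viability, T/C: 100% = DMSO vehicle-treated spheroids so lower means fewer viable cells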
Settings: for pIC50: curve of first compound; for viability, T/C: stronger effect = lower value
Summary of the method: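 Complex spheroids of tumor cells with HUVEC and human MSCs, exposed to iadademstat combined with other agents. Each agent tested in half-log steps from near clinical Cmax (else 10 microM top), DMSO ≤0.25%.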

Compound: CC[C@@]1(O)C(=O)OCc2c1cc1n(c2=O)Cc2cc3c(CN(C)C)c(O)ccc3nc2-1 + NC1CC1c1ccc(-c2cccc(O)c2)cc1
- pIC50 (second compound 0.1 µM): 8.74
- pIC50 (second compound 0.316 µM): 8.74
- pIC50 (second compound 1 µM): 8.74
- pIC50 (second compound 3.16 µM): 8.76
- pIC50 (second compound 10 µM): 8.77
- viability, T/C (second compound 0.1 µM, first compound 0.000316 µM): 102%
- viability, T/C (second compound 0.1 µM, first compound 0.001 µM): 87.4%
- viability, T/C (second compound 0.1 µM, first compound 0.00316 µM): 15.2%
- viability, T/C (second compound 0.1 µM, first compound 0.01 µM): 10.4%
- viability, T/C (second compound 0.1 µM, first compound 0.0316 µM): 6.25%
- viability, T/C (second compound 0.1 µM, first compound 0.1 µM): 4.62%
- viability, T/C (second compound 0.316 µM, first compound 0.000316 µM): 102%
- viability, T/C (second compound 0.316 µM, first compound 0.001 µM): 86.2%
- viability, T/C (second compound 0.316 µM, first compound 0.00316 µM): 15.2%
- viability, T/C (second compound 0.316 µM, first compound 0.01 µM): 9.15%
- viability, T/C (second compound 0.316 µM, first compound 0.0316 µM): 6.84%
- viability, T/C (second compound 0.316 µM, first compound 0.1 µM): 4.48%
- viability, T/C (second compound 1 µM, first compound 0.000316 µM): 104%
- viability, T/C (second compound 1 µM, first compound 0.001 µM): 87%
- viability, T/C (second compound 1 µM, first compound 0.00316 µM): 15.2%
- viability, T/C (second compound 1 µM, first compound 0.01 µM): 9.89%
- viability, T/C (second compound 1 µM, first compound 0.0316 µM): 6.39%
- viability, T/C (second compound 1 µM, first compound 0.1 µM): 4.42%
- viability, T/C (second compound 3.16 µM, first compound 0.000316 µM): 100%
- viability, T/C (second compound 3.16 µM, first compound 0.001 µM): 81.5%
- viability, T/C (second compound 3.16 µM, first compound 0.00316 µM): 15.6%
- viability, T/C (second compound 3.16 µM, first compound 0.01 µM): 10.3%
- viability, T/C (second compound 3.16 µM, first compound 0.0316 µM): 7.55%
- viability, T/C (second compound 3.16 µM, first compound 0.1 µM): 4.94%
- viability, T/C (second compound 10 µM, first compound 0.000316 µM): 97.8%
- viability, T/C (second compound 10 µM, first compound 0.001 µM): 76.8%
- viability, T/C (second compound 10 µM, first compound 0.00316 µM): 17.8%
- viability, T/C (second compound 10 µM, first compound 0.01 µM): 15.2%
- viability, T/C (second compound 10 µM, first compound 0.0316 µM): 8.77%
- viability, T/C (second compound 10 µM, first compound 0.1 µM): 6.56%

Reference: PubChem BioAssay AID1918957 (Molecular Pharmacology Branch, DTP, NCI, 2023)
